Measured values: patent US3962243A (Laboratories Made, S.A., priority 1974, dated 1976)

Key:
[1] = system: bronchial spasm; experiment: Bronchial spasmolytic action; format: in vivo
[2] = system: mice; experiment: Sub-acute and chronic toxicity; format: in vivo; settings: administration to mice over periods of 2 and 6 months
[3] = system: rat complete brain homogenates; experiment: Action on cerebral oxidative activity (oxygen consumption); settings: 1 × 10^-^3 and 1 × 10^-^4 M

2-[(2-dimethylaminoethyl) (p-methoxybenzyl)amino]-pyridine 1,2,3,6-tetrahydro-1,3-dimethyl-2,6-dioxopurin-7-acetate
duration of activity, bronchial spasmolytic action ([1]; in vivo): over 5 hours
action against bronchial spasm by route ([1]; oral, rectal, intramuscular and intravenous): Effective action against bronchial spasm is obtainable by all routes
active dose, bronchial spasmolytic action ([1]; very small doses): 6 µg/kg
microscopic or macroscopic organ alteration [2]: No microscopic or macroscopic organ alteration
inhibition of the oxygen consumption [3]: strong inhibition of the oxygen consumption
